Results: patent US20240373852A1, “COMPOSITION FOR ALLEVIATING DROUGHT STRESS COMPRISING AMINO ACID” (CJ CheilJedang Corporation, priority 2022, published 2024)

Test system: Arabidopsis thaliana
Experiment: Drought stress alleviation plate assay, single amino acid spray on Arabidopsis thaliana seedlings on PEG-treated medium
Format: in vivo
Conditions: for growth and development of above- and below-ground tissues (fresh weight of above-ground tissues, root length): drought stress-induced medium (PEG 20% treated), amino acid aqueous solution 0.05% (w/w) or 0.1% (w/w) sprayed 1 ml/plate, 3 days intervals, 4 times, compared to water or A company's product (AP); for function in alleviating drought stress and promoting plant growth: laboratory condition (plate assay), conclusion from Example 1-2 and 1-3
Text: In order to select an individual amino acid having function in alleviating drought stress among 20 kinds of amino acids (histidine, sodium glutamate, proline, threonine, tryptophan, valine, alanine, arginine, asparagine, aspartic acid, cysteine, glutamine, glycine, leucine, lysine, methionine, phenylalanine, serine, or tyrosine), Arabidopsis thaliana was trans-planted in drought stress-induced medium, and an amino acid aqueous solution comprising each amino acid (0.05% (w/w) or 0.1% (w/w)) was treated, then the fresh weight of the above-ground tissue and growth and development of the root (main root) of Arabidopsis thaliana were investigated.
Arabidopsis thaliana seeds (provided by Konkuk University plant development genomics lab) were put in a 2% Sodium hypochlorite, 0.05% Tween 20 solution and sterilized for 1 minute, then washed with water 4 times. The sterilized seeds were incubated in dark and cold (4 degrees) for 3 days.
Arabidopsis thaliana seeds were sown in a plant growth medium (½ MS; Murashige and Skoog Medium, Duchefa Biochem), and grow for 6 days in the growth chamber. The growth condition of plants is as follows: • Temperature: 23° C.; humidity: 60˜65%; light: light 16 hours/dark 8 hours
The drought stress-induced medium was prepared by the method as below.
After 24 hours, the PEG solution was removed and dried at a room temperature under a sterile condition.
6 days-old Arabidopsis thaliana seedlings grown in normal plant growth medium were transferred to the drought stress-induced medium (PEG 20% treated) or a control medium (PEG untreated).
Immediately after transfer seedlings on the drought-stress induced medium, an individual amino acid aqueous solution (0.05% (w/w) or 0.1% (w/w)) was sprayed on the plants; 1 ml/plate, 3 days intervals, for 4 times. As a control group, instead of the amino acid aqueous solution, water (DW, distilled water) or A company's drought stress-alleviating product (AP product, comprising Pro 9%, MSG 2.5%, Asp 0.9%) (Ajinomoto Fertilizers, Amino proline) was sprayed by the same method.
After that, the fresh weight, and root growth and development of Arabidopsis thaliana were investigated.

Compound: N[C@@H](CCC(=O)[O-])C(=O)[O-].[Na+].[Na+] [sodium glutamate]
- growth and development of above- and below-ground tissues (fresh weight of above-ground tissues, root length): excellent
- function in alleviating drought stress and promoting plant growth: positive function

Compound: C[C@H](N)C(=O)O [alanine]
- growth and development of above- and below-ground tissues (fresh weight of above-ground tissues, root length): excellent
- function in alleviating drought stress and promoting plant growth: positive function

Compound: N[C@@H](Cc1ccccc1)C(=O)O [phenylalanine]
- growth and development of above- and below-ground tissues (fresh weight of above-ground tissues, root length): excellent
- function in alleviating drought stress and promoting plant growth: positive function

Compound: N[C@@H](Cc1c[nH]cn1)C(=O)O [histidine]
- growth and development of above- and below-ground tissues (fresh weight of above-ground tissues, root length): excellent
- function in alleviating drought stress and promoting plant growth: positive function

Compound: N=C(N)NCCC[C@H](N)C(=O)O [arginine]
- growth and development of above- and below-ground tissues (fresh weight of above-ground tissues, root length): excellent
- function in alleviating drought stress and promoting plant growth: positive function

Compound: N[C@@H](Cc1c[nH]c2ccccc12)C(=O)O [tryptophan]
- growth and development of above- and below-ground tissues (fresh weight of above-ground tissues, root length): excellent
- function in alleviating drought stress and promoting plant growth: positive function

Compound: NC(=O)CC[C@H](N)C(=O)O [glutamine]
- growth and development of above- and below-ground tissues (fresh weight of above-ground tissues, root length): excellent
- function in alleviating drought stress and promoting plant growth: positive function

Compound: CC(C)[C@H](N)C(=O)O [valine]
- growth and development of above- and below-ground tissues (fresh weight of above-ground tissues, root length): excellent

Compound: NCC(=O)O [glycine]
- growth and development of above- and below-ground tissues (fresh weight of above-ground tissues, root length): excellent
- function in alleviating drought stress and promoting plant growth: positive function

Compound: N[C@@H](CC(=O)O)C(=O)O [aspartic acid]
- growth and development of above- and below-ground tissues (fresh weight of above-ground tissues, root length): excellent
- function in alleviating drought stress and promoting plant growth: positive function
